Experimental data published in PubChem BioAssay (NCI).
Several values for one entry are separate records, joined by “and”; a condition that tells them apart may be missing. Equal values may be shown once.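 Exposure lasted 48 hours, with cells grown in 96-well plates and compounds tested at five concentrations. GI50 marks 50% less growth. TGI denotes the concentration required for complete inhibition of growth.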

What was measured:
Assay in all cases: DTP human tumour cell line panel, 48 h
SF-268 CNS = system: SF-268 CNS
HCC-2998 colon = system: HCC-2998 colon
HCT-116 colon = system: HCT-116 colon
COLO 205 colon = system: COLO 205 colon
SNB-19 CNS = system: SNB-19 CNS
HT29 colon = system: HT29 colon
HOP-62 NSCLC = system: HOP-62 NSCLC
M14 melanoma = system: M14 melanoma
HL-60(TB) leukemia = system: HL-60(TB) leukemia
OVCAR-4 ovarian = system: OVCAR-4 ovarian

Row | SMILES | GI50 (SF-268 CNS) | TGI (SF-268 CNS) | GI50 (HCC-2998 colon) | TGI (HCC-2998 colon) | GI50 (HCT-116 colon) | TGI (HCT-116 colon) | GI50 (COLO 205 colon) | TGI (COLO 205 colon) | GI50 (SNB-19 CNS) | TGI (SNB-19 CNS) | GI50 (HT29 colon) | TGI (HT29 colon) | GI50 (HOP-62 NSCLC) | TGI (HOP-62 NSCLC) | GI50 (M14 melanoma) | TGI (M14 melanoma) | GI50 (HL-60(TB) leukemia) | TGI (HL-60(TB) leukemia) | GI50 (OVCAR-4 ovarian) | TGI (OVCAR-4 ovarian)
1 | CCOC(=O)c1ccc2[nH]c(Cc3[nH]c4ccc(C(=O)OCC)cc4c3C)c(C)c2c1 | 1.41 µM | 15.4 µM | 4.35 µM | 59.3 µM | 0.556 µM | 8.58 µM | 2.51 µM | 21.2 µM | 3.9 µM | 25.9 µM | 0.821 µM | 8.2 µM | 2.58 µM | 14.7 µM | 5.98 µM | 34.1 µM | 3.81 µM | 46.8 µM | 7.87 µM | 47.7 µM
2 | Nc1nc(F)nc2c1ncn2C1OC(COP(=O)(O)O)C(O)C1O (stereo unspecified) | – | 874 µM | – | 1170 µM | – | 325 µM | – | 610 µM | – | 1000 µM | – | > 1250 µM | – | 122 µM | – | 66.7 µM | – | 71.9 µM | – | 987 µM
3 | C=C1C(=O)O[C@H]2[C@H]1CC/C(COC(=O)N[C@@H](Cc1c[nH]c3ccccc13)C(=O)OC)=C\CC[C@@]1(C)O[C@@H]21 | 2.25 µM | 6.67 µM | 1.95 µM | 4.01 µM | 1.25 µM | 2.79 µM | 1.73 µM | 3.4 µM | 2.48 µM | 7.52 µM | 1.44 µM | 3.04 µM | 8.77 µM | 22.1 µM | 1.59 µM | 3.35 µM | 0.363 µM | 1.89 µM | 2.03 µM | 5.62 µM
4 | CCSc1nc(=S)[nH]c2[nH]ncc12 | 51.9 µM | > 100 µM | 59.1 µM | > 100 µM | > 100 µM | > 100 µM | 38.1 µM | > 100 µM | > 100 µM | > 100 µM | > 100 µM | > 100 µM | > 100 µM | > 100 µM | > 100 µM | > 100 µM | > 100 µM | > 100 µM | > 100 µM | > 100 µM
5 | CN(C)c1ccc2[nH]c(O)c(C=Nc3ccc(S(N)(=O)=O)cc3)c2c1 | > 25 µM | > 25 µM | > 25 µM | > 25 µM | 20.3 µM | > 25 µM | 15.6 µM | > 25 µM | > 25 µM | > 25 µM | > 25 µM | > 25 µM | > 25 µM | > 25 µM | > 25 µM | > 25 µM | > 25 µM | > 25 µM | > 25 µM | > 25 µM
6 | O=C1C=CC(=O)N1c1ccc2c(c1)Cc1cc(NC(=O)C(F)(F)F)ccc1-2 | – | 39.7 µM | – | > 58.9 µM | – | 22.6 µM | – | 26 µM | – | > 65.5 µM | – | 25.5 µM | – | 50.7 µM | – | 44 µM | – | 38.1 µM | – | 31.2 µM
7 | Cc1cc(Nc2ncc(Cl)c(Nc3ccccc3S(=O)(=O)C(C)C)n2)c(OC(C)C)cc1C1CCNCC1 | 1.61 µM | 3.38 µM | 0.991 µM | 2.21 µM | 1.24 µM | 2.62 µM | 0.312 µM and 0.332 µM | 1.39 µM and 1.28 µM | 1.73 µM | 3.14 µM | 0.237 µM and 0.304 µM | 1.24 µM and 1.27 µM | 1.4 µM | 2.75 µM | 1.37 µM | 2.9 µM | 0.253 µM | 1.64 µM | 2.14 µM and 1.15 µM | 7.61 µM and 2.46 µM
8 | CCC[C@H](Nc1nc(-c2ccc(NC(=O)NCC)c(OC)c2)ncc1C)c1cccnc1 | 0.0534 µM | 14.7 µM | 0.0295 µM | 0.874 µM | 0.0349 µM | 10.5 µM | 0.0282 µM | 0.0736 µM | 0.0441 µM | > 84.8 µM | 0.0361 µM | 16.9 µM | 0.0638 µM | 39.7 µM | 0.0282 µM | 0.0824 µM | 0.0246 µM | 0.0582 µM | 0.0691 µM | 41.8 µM
9 | c1cncc(-c2cc(-c3cc(-c4cccnc4)n[nH]3)[nH]n2)c1 | – | > 100 µM | – | > 100 µM | – | > 100 µM | – | > 100 µM | – | > 100 µM | – | > 100 µM | – | > 100 µM | – | > 100 µM | – | > 100 µM | – | > 100 µM
10 | O=C(/C=C/C12c3ccccc3C(c3ccccc31)C1C(=O)NC(=O)C12)c1ccco1 (stereo unspecified) | 2.72 µM | 9.1 µM | 1.79 µM | 3.52 µM | 1.69 µM | 3.74 µM | 3.27 µM | 9.32 µM | 2.19 µM | 5.17 µM | 2.28 µM | 5.06 µM | 2.7 µM | 6.99 µM | 3.1 µM | 11.2 µM | 1.58 µM | 4.89 µM | 3.45 µM | 13.5 µM
11 | COc1cc(/C=C/C(=O)CC(=O)/C=C/c2ccc(OC(=O)CCNC34CC5CC(CC(C5)C3)C4)c(OC)c2)ccc1OC(=O)CCNC12CC3CC(CC(C3)C1)C2 | 3.01 µM | 13.2 µM | 1.93 µM | 4.37 µM | 2.37 µM | 9.9 µM | 4.71 µM | 20.8 µM | 4.65 µM | 18.4 µM | 1.75 µM | 3.2 µM | 3.99 µM | 16.6 µM | 3.48 µM | 14.1 µM | 2.27 µM | 9.27 µM | 11 µM | > 100 µM
12 | O[C@H]1[C@H]2[C@H](O)CCCN2C[C@H]1O | – | > 100 µM | – | > 100 µM | – | > 100 µM | – | > 100 µM | – | > 100 µM | – | > 100 µM | – | > 100 µM | – | > 100 µM | – | > 100 µM | – | > 100 µM
13 | O=C(/C=C/c1ccc2c(c1)OCO2)c1ccccc1 | 15 µM | 35.6 µM | 16 µM | 30.2 µM | 3.74 µM | 14.1 µM | 19.1 µM | 36.7 µM | 15.1 µM | 32.1 µM | – | – | 23.9 µM | 80.9 µM | 13.2 µM | 29.8 µM | 17.8 µM | 61.6 µM | 24.8 µM | > 100 µM
14 | O=c1[nH]cnc2c1nnn2[C@@H]1O[C@H](CO)[C@@H](O)[C@H]1O | 28.9 µM | > 100 µM | 4.33 µM | > 100 µM | 3.93 µM | > 100 µM | 3.16 µM | 20.6 µM | – | – | 4.51 µM | > 100 µM | 9.22 µM | > 100 µM | 3.54 µM | 41.9 µM | 1.56 µM | 39.5 µM | 1.89 µM | > 100 µM
